# In PubChem BioAssay (NCI):
# Where “and” joins values, the source holds several entries; their conditions need not be identical. Identical values can stand only once.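 Five concentrations, 48 hours, 96-well plates. Here, GI50 denotes the concentration required for 50% inhibition of growth. TGI: concentration producing complete growth inhibition.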
# Legend:
# Assay in all cases: NCI-60 cell line screen, 48 h
# K-562 leukemia = system: K-562 leukemia
# NCI-H460 lung = system: NCI-H460 lung
# EKVX NSCLC = system: EKVX NSCLC
# CAKI-1 renal = system: CAKI-1 renal
# NCI-H23 lung = system: NCI-H23 lung
# MOLT-4 leukemia = system: MOLT-4 leukemia
# A498 renal = system: A498 renal
# U251 CNS = system: U251 CNS
# SF-295 CNS = system: SF-295 CNS
# NCI/ADR-RES ovarian = system: NCI/ADR-RES ovarian
SMILES,TGI (K-562 leukemia) [µM],TGI (NCI-H460 lung),TGI (EKVX NSCLC) [µM],TGI (CAKI-1 renal) [µM],TGI (NCI-H23 lung),TGI (MOLT-4 leukemia),TGI (A498 renal) [µM],TGI (U251 CNS),TGI (SF-295 CNS) [µM],GI50 (K-562 leukemia),GI50 (NCI-H460 lung) [µM],GI50 (EKVX NSCLC) [µM],GI50 (CAKI-1 renal) [µM],GI50 (NCI-H23 lung) [µM],GI50 (MOLT-4 leukemia) [µM],GI50 (U251 CNS),GI50 (NCI/ADR-RES ovarian) [µM],TGI (NCI/ADR-RES ovarian) [µM],GI50 (SF-295 CNS),GI50 (A498 renal) [µM]
CN(C)CCN1N=Nc2cccc3cccc1c23,> 100,> 100 µM,> 100,> 100,> 100 µM,> 87.3 µM,> 100,> 100 µM,> 100,,,,,,,,,,,
Cc1cc(S(=O)(=O)Nc2nnc(-c3ccco3)c(-c3ccco3)n2)c(SCc2ccccc2)cc1Cl,> 100,83.5 µM,37.6,55.8,46.9 µM,53 µM,,62.2 µM,83.9,28.2 µM,31.6,17.5,28.5,22.8,17.9,25.7 µM,39.4,> 100,29.2 µM,
COc1ccc(/C=C/C(=O)/C=C(/C=C/c2ccc(OC)c(OC)c2)OB(F)F)cc1OC,> 100,4.58 µM,> 100,,4.17 µM,6.17 µM,5.12,2.31 µM,4.87,0.463 µM,1.68,1.04,,1.33,0.449,0.807 µM,0.529,> 100,1.89 µM,1.83
Cc1c2cc[n+](C)cc2c(C)c2c1[nH]c1ccc(OC(C)C)cc12,> 46.4,11.8 µM and 13.6 µM,> 100,> 35.1,5.08 µM and 7.09 µM,20.4 µM and 17.1 µM,> 46.8,2.93 µM and 9.46 µM,,1.02 µM and 2.55 µM,,,,,,0.145 µM and 0.39 µM,,,0.231 µM and 1.7 µM,
Nc1ccc(CCN2CCN(c3cccc(C(F)(F)F)c3)CC2)cc1,> 100,> 100 µM,> 100,> 100,> 100 µM,89.7 µM,> 100,> 100 µM,> 100,,,,,,,,,,,
Clc1ccc(Nc2ccnc(NCCNc3ccnc4cc(Cl)ccc34)n2)cc1,1.87,2.86 µM,,3.01,2.91 µM,3.55 µM,2.39,2.67 µM,2.42,0.501 µM,1.34,,1.59,1.44,1.49,1.33 µM,1.61,3.51,1.16 µM,1.13
COc1cccc(/C=C\c2cc(OC)c(OC)c(OC)c2)c1,43.7,> 100 µM,> 100,56.4,9.4 µM,18 µM,,23 µM,,,,,,,,,,,,
CCC12CCC(O)C1N(C)CCC2Sc1ccccc1 (stereo unspecified),> 100,> 100 µM,> 100,,> 100 µM,> 100 µM,> 100,> 100 µM,> 100,,,,,,,,,,,
COc1ccc(/C=C\c2cc(OC)c(OC)c(OC)c2)cc1NC(=O)[C@@H](N)CO,> 100,> 100 µM,,> 100,> 100 µM,> 100 µM,< 0.0158,> 100 µM,> 100,< 0.01 µM,0.0321,,< 0.01,0.033,0.0432,0.0165 µM,0.0205,0.245,< 0.01 µM,< 0.01
COCC1N=C(c2ccc(OC)c(OCc3ccccc3)c2OC)O[C@H]1c1ccccc1 (stereo partly specified),> 100,35 µM,> 100,,> 100 µM,23.3 µM,79.7,60.6 µM,93.8,,,,,,,,,,,
O=C(Nc1ccccc1)O/N=C1/CCCC/C1=C\c1ccccc1,29.1,28.3 µM,,29.2,48.8 µM,26.5 µM,53.6,30.2 µM,29.9,,,,,,,,,,,
O=[N+]([O-])c1ccc2c(c1)OCCOCCOc1ccc([N+](=O)[O-])cc1OCCOCCO2,> 100,> 100 µM,> 100,> 100,> 100 µM,> 100 µM,> 100,> 100 µM,> 100,,,,,,,,,,,
COC(=O)C1Cc2c(n(C)c3ccccc23)C(c2ccccc2)N1 (stereo unspecified),> 100,> 100 µM,> 100,> 100,> 100 µM,> 100 µM,> 100,> 100 µM,> 100,,,,,,,,,,,
C=CC[P@@]1(=O)O[C@H](c2ccccc2)C(C)N1C(C)C (stereo partly specified),> 100,> 100 µM,> 100,,> 100 µM,> 100 µM,> 100,> 100 µM,> 100,,,,,,,,,,,
O=C(Nc1cccc(C2=NCCN2)c1)c1ccc(OCCCOc2ccc(C(=O)Nc3cccc(C4=NCCN4)c3)cc2)cc1,> 100,,,84.6,,> 100 µM,8.37,,> 100,1.25 µM,,,4.67,,3.86,,46.2,> 100,3.29 µM,2.3
COC(=O)/C=C1\SC(=Nc2ccc(C(F)(F)F)cc2)N(CCc2c[nH]c3ccccc23)C1=O,6.42,4.28 µM,3.81,,3.64 µM,5.51 µM,2.98,2.99 µM,2.95,1.66 µM,2.04,1.86,,1.76,1.22,1.63 µM,1.89,4.31,1.57 µM,1.5
Cc1cc(N(CCC#N)CCC#N)ccc1N=Nc1ccccc1[N+](=O)[O-],> 100,,> 100,> 100,> 100 µM,> 100 µM,> 100,> 100 µM,> 100,,,,,,,,,,,
NC(=O)c1csc(C2O[C@@H](COP(=O)(O)OP(=O)(O)OC[C@H]3OC(n4cnc5c(N)ncnc54)[C@H](O)[C@@H]3O)[C@H](O)[C@@H]2O)n1 (stereo partly specified),> 100,> 100 µM,> 100,> 100,> 100 µM,> 100 µM,> 100,> 100 µM,> 100,,,,,,,,,,,
CC(=O)CC(=O)CCCC(=O)Nc1ccc(Cl)cc1Cl,> 100,> 100 µM,,> 100,> 100 µM,> 100 µM,,,> 100,,,,,,,,,,,
